Source: patent publication US10765114B2, “4-amino-6-(pyridyl and 2-substitutedphenyl)-picolinates and 6-amino-2-(pyridyl and 2-substitutedphenyl)-pyrimidine-4-carboxylates and their use as herbicides” (Dow AgroSciences LLC, priority 2013, dated 2020)
Read-outs that look alike come from different tables or passages of the source.

Key:
[1] = system: Key Broadleaf Weed and Crop Species; assay: Post-Emergent Test II (Table 5); type: in vivo; conditions: post-emergence, 336 h; for pest or weed control at 70 g/ha: application rate 70 (kg ai/ha; footnote: g ai/ha); for pest or weed control at 140 g/ha: application rate 140 (kg ai/ha; footnote: g ai/ha)
Method in brief: (§1)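 Seedlings are raised 7-21 days in Metro-Mix 360 (pH 6.0-6.8) under greenhouse conditions, then sprayed at the first or second true leaf stage. Application is 187 L/ha, with serial rates down to 1/16× of the highest. Plants are subirrigated, and percent injury is rated visually after 14 days.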

[2] = system: Key Grass and Sedge Weeds as well as Grass Crops; assay: Post-Emergent Test II (Table 6); type: in vivo; conditions: post-emergence, 336 h, 14 days after application; for pest or weed control at 70 g/ha: 70 g ai/ha; for pest or weed control at 140 g/ha: 140 g ai/ha
Method in brief: as §1

[3] = Abutilon theophrasti, ABUTH: velvetleaf (Abutilon theophrasti), read-out: Visual Growth Reduction (%) 14 Days After Application ABUTH
[4] = Amaranthus retroflexus, AMARE: redroot pigweed (Amaranthus retroflexus), read-out: Visual Growth Reduction (%) 14 Days After Application AMARE
[5] = Brassica napus, BRSSS: oilseed rape, canola (Brassica napus), read-out: Visual Growth Reduction (%) 14 Days After Application BRSSS
[6] = Chenopodium album, CHEAL: lambsquarters (Chenopodium album), read-out: Visual Growth Reduction (%) 14 Days After Application CHEAL
[7] = Euphorbia heterophylla, EPHHL: wild poinsettia (Euphorbia heterophylla), read-out: Visual Growth Reduction (%) 14 Days After Application EPHHL
[8] = Helianthus annuus, HELAN: sunflower (Helianthus annuus), read-out: Visual Growth Reduction (%) 14 Days After Application HELAN
[9] = Viola tricolor, VIOTR: wild pansy (Viola tricolor), read-out: Visual Growth Reduction (%) 14 Days After Application VIOTR
[10] = CYPSS, read-out: Visual Growth Reduction (%) 14 Days After Application CYPSS
[11] = DIGSA: crabgrass (Digitaria sanguinalis), read-out: Visual Growth Reduction (%) 14 Days After Application DIGSA
[12] = ECHSS, read-out: Visual Growth Reduction (%) 14 Days After Application ECHSS
[13] = ORYSS (crop), read-out: Visual Growth Reduction (%) 14 Days After Application ORYSS
[14] = SETFA: giant foxtail (Setaria faberi), read-out: Visual Growth Reduction (%) 14 Days After Application SETFA
[15] = SORVU: grain sorghum (Sorghum vulgare), read-out: Visual Growth Reduction (%) 14 Days After Application SORVU
[16] = TRZSS (crop), read-out: Visual Growth Reduction (%) 14 Days After Application TRZSS
[17] = ZEAMX: maize, corn (Zea mays), read-out: Visual Growth Reduction (%) 14 Days After Application ZEAMX

Row | Compound | pest or weed control at 70 g/ha [1, 3] | pest or weed control at 140 g/ha [1, 3] | pest or weed control at 70 g/ha [1, 4] | pest or weed control at 140 g/ha [1, 4] | pest or weed control at 70 g/ha [1, 5] | pest or weed control at 140 g/ha [1, 5] | pest or weed control at 70 g/ha [1, 6] | pest or weed control at 140 g/ha [1, 6] | pest or weed control at 70 g/ha [1, 7] | pest or weed control at 140 g/ha [1, 7] | pest or weed control at 70 g/ha [1, 8] | pest or weed control at 140 g/ha [1, 8] | pest or weed control at 70 g/ha [1, 9] | pest or weed control at 140 g/ha [1, 9] | pest or weed control at 70 g/ha [2, 10] | pest or weed control at 140 g/ha [2, 10] | pest or weed control at 70 g/ha [2, 11] | pest or weed control at 140 g/ha [2, 11] | pest or weed control at 70 g/ha [2, 12] | pest or weed control at 140 g/ha [2, 12] | also measured
1 | COC(=O)c1nc(-c2ccc(Cl)c(OC)c2C(F)F)cc(N)c1Cl [Compound 60, methyl 4-amino-3-chloro-6-(4-chloro-2-(difluoromethyl)-3-methoxyphenyl)picolinate] | 95 to 100% | 95 to 100% | 95 to 100% | 95 to 100% | 60 to 74% | 75 to 84% | 95 to 100% | 95 to 100% | 60 to 74% | 60 to 74% | 85 to 94% | 85 to 94% | 30 to 44% | 30 to 44% | 30 to 44% | 30 to 44% | 0 to 29% | 30 to 44% | 0 to 29% | 30 to 44% | pest or weed control at 70 g/ha [2, 13]: 0 to 29%; pest or weed control at 140 g/ha [2, 13]: 0 to 29%; pest or weed control at 70 g/ha [2, 14]: 0 to 29%; pest or weed control at 140 g/ha [2, 14]: 0 to 29%; pest or weed control at 70 g/ha [2, 15]: 0 to 29%; pest or weed control at 140 g/ha [2, 15]: 45 to 59%; pest or weed control at 70 g/ha [2, 16]: 0 to 29%; pest or weed control at 140 g/ha [2, 16]: 0 to 29%; pest or weed control at 70 g/ha [2, 17]: 0 to 29%; pest or weed control at 140 g/ha [2, 17]: 0 to 29%
2 | Nc1cc(-c2ccc(Cl)c(Cl)c2Cl)nc(C(=O)O)c1Cl [Compound 93] | 85 to 94% | 85 to 94% | 95 to 100% | 95 to 100% | 95 to 100% | 95 to 100% | 85 to 94% | 95 to 100% | 95 to 100% | 95 to 100% | 60 to 74% | 75 to 84% | 60 to 74% | 0 to 29% | 0 to 29% | 0 to 29% | 60 to 74% | 60 to 74% | 30 to 44% | 30 to 44% | pest or weed control at 70 g/ha [2, 13]: 0 to 29%; pest or weed control at 140 g/ha [2, 13]: 0 to 29%; pest or weed control at 70 g/ha [2, 14]: 0 to 29%; pest or weed control at 140 g/ha [2, 14]: 0 to 29%; pest or weed control at 70 g/ha [2, 15]: 0 to 29%; pest or weed control at 140 g/ha [2, 15]: 0 to 29%; pest or weed control at 70 g/ha [2, 16]: 45 to 59%; pest or weed control at 140 g/ha [2, 16]: 60 to 74%; pest or weed control at 70 g/ha [2, 17]: 30 to 44%; pest or weed control at 140 g/ha [2, 17]: 30 to 44%
3 | Cc1c(-c2nc(C(=O)O)c(Cl)c(N)c2F)ccc(C(F)(F)F)c1F [Compound 55] | 45 to 59% | 45 to 59% | 0 to 29% | 0 to 29% | 30 to 44% | 45 to 59% | 60 to 74% | 85 to 94% | 0 to 29% | 45 to 59% | 85 to 94% | 95 to 100% | 0 to 29% | 0 to 29% | 0 to 29% | 0 to 29% | 0 to 29% | 0 to 29% | 0 to 29% | 0 to 29% | pest or weed control at 70 g/ha [2, 13]: 0 to 29%; pest or weed control at 140 g/ha [2, 13]: 0 to 29%; pest or weed control at 70 g/ha [2, 15]: 0 to 29%; pest or weed control at 140 g/ha [2, 15]: 0 to 29%; pest or weed control at 70 g/ha [2, 16]: 0 to 29%; pest or weed control at 140 g/ha [2, 16]: 0 to 29%; pest or weed control at 70 g/ha [2, 17]: 45 to 59%; pest or weed control at 140 g/ha [2, 17]: 45 to 59%
4 | Nc1cc(-c2ccc(Cl)c(F)c2C(=O)O)nc(C(=O)O)c1Cl [Compound 56, 4-Amino-6-(2-carboxy-4-chloro-3-fluorophenyl)-3-chloropicolinic acid] | 0 to 29% | 0 to 29% | 0 to 29% | 0 to 29% | 0 to 29% | 0 to 29% | 45 to 59% | 75 to 84% | 0 to 29% | 0 to 29% | 0 to 29% | 0 to 29% | 0 to 29% | 0 to 29% | 0 to 29% | 0 to 29% | 0 to 29% | 0 to 29% | 0 to 29% | 0 to 29% | pest or weed control at 70 g/ha [2, 13]: 0 to 29%; pest or weed control at 140 g/ha [2, 13]: 0 to 29%; pest or weed control at 70 g/ha [2, 14]: 0 to 29%; pest or weed control at 140 g/ha [2, 14]: 0 to 29%; pest or weed control at 70 g/ha [2, 15]: 0 to 29%; pest or weed control at 140 g/ha [2, 15]: 0 to 29%; pest or weed control at 70 g/ha [2, 16]: 0 to 29%; pest or weed control at 140 g/ha [2, 16]: 0 to 29%; pest or weed control at 70 g/ha [2, 17]: 0 to 29%; pest or weed control at 140 g/ha [2, 17]: 0 to 29%
